# Experimental data from publication PMC12486440, “Design, synthesis, and in silico studies of new benzofuran–pyrazole hybrids as multi-kinase inhibitors with potential antiproliferative activity” (RSC Advances, 2025).
# Key:
# PC-3 = conditions: single dose 10 μM; prostate carcinoma
# K-562 = conditions: single dose 10 μM; leukemia
# MCF7 = conditions: single dose 10 μM; breast carcinoma
# SK-OV-3 = conditions: single dose 10 μM; ovarian carcinoma
# SF-539 = conditions: single dose 10 μM; CNS cancer
# OVCAR-5 = conditions: single dose 10 μM; ovarian carcinoma
# NCI/ADR-RES = conditions: single dose 10 μM; ovarian carcinoma
# ACHN = conditions: single dose 10 μM; renal carcinoma
# RPMI-8226 = conditions: single dose 10 μM; leukemia
# TK-10 = conditions: single dose 10 μM; renal carcinoma
# HOP-62 = conditions: single dose 10 μM; non-small lung carcinoma
# CAKI-1 = conditions: single dose 10 μM; renal carcinoma
# HCT-15 = conditions: single dose 10 μM; colon cancer
# HCT-116 = conditions: single dose 10 μM; colon cancer
# HOP-92 = conditions: single dose 10 μM; non-small lung carcinoma
# SK-MEL-5 = conditions: single dose 10 μM; melanoma
# MALME-3M = conditions: single dose 10 μM; melanoma
# SN12C = conditions: single dose 10 μM; renal carcinoma
# 786–0 = conditions: single dose 10 μM; renal carcinoma
# CCRF-CEM = conditions: single dose 10 μM; leukemia
# NCI-H226 = conditions: single dose 10 μM; non-small lung carcinoma
# MDA-MB-468 = conditions: single dose 10 μM; breast carcinoma
# M14 = conditions: single dose 10 μM; melanoma
# SR = conditions: single dose 10 μM; leukemia
# HL-60(TB) = conditions: single dose 10 μM; leukemia
# MOLT-4 = conditions: single dose 10 μM; leukemia
# BT-549 = conditions: single dose 10 μM; breast carcinoma
# UO-31 = conditions: single dose 10 μM; renal carcinoma
# T-47D = conditions: single dose 10 μM; breast carcinoma
# EKVX = conditions: single dose 10 μM; non-small lung carcinoma
# NCI-H522 = conditions: single dose 10 μM; non-small lung carcinoma
# SF-268 = conditions: single dose 10 μM; CNS cancer
# SF-295 = conditions: single dose 10 μM; CNS cancer
# SNB-19 = conditions: single dose 10 μM; CNS cancer
# A498 = conditions: single dose 10 μM; renal carcinoma
# UACC-62 = conditions: single dose 10 μM; melanoma
# [1] = system: NCI 60 cancer cell line panel; experiment: NCI 60 full panel summary; conditions: single dose 10 μM; mean over the NCI 60 panel
substance,measurement,setting,value
"3-(5-(Benzofuran-2-yl)-1-phenyl-1H-pyrazol-3-yl)-1-(3,4-dimethoxyphenyl)prop-2-en-1-one [2c]",GI%,PC-3,7.06%
same,GI%,K-562,5.48%
same,GI%,MCF7,9.78%
same,GI%,SK-OV-3,11.15%
same,GI%,SF-539,4.21%
same,GI%,OVCAR-5,0.00%
same,GI%,NCI/ADR-RES,1.79%
same,GI%,ACHN,0.70%
same,GI%,RPMI-8226,4.63%
same,GI%,TK-10,6.22%
same,GI%,HOP-62,4.42%
same,GI%,CAKI-1,10.30%
same,GI%,HCT-15,1.66%
same,GI%,HCT-116,0.17%
same,GI%,HOP-92,13.94%
same,GI%,SK-MEL-5,1.65%
same,GI%,MALME-3M,5.86%
same,GI%,SN12C,10.90%
same,GI%,786–0,2.44%
same,GI%,CCRF-CEM,8.09%
same,GI%,NCI-H226,1.83%
same,GI%,MDA-MB-468,0.93%
same,GI%,M14,1.79%
same,GI%,SR,17.15%
same,GI%,HL-60(TB),6.49%
same,GI%,MOLT-4,4.38%
same,GI%,BT-549,16.27%
same,GI%,UO-31,15.32%
same,GI%,T-47D,9.23%
same,GI%,EKVX,0.81%
same,GI%,NCI-H522,1.92%
same,GI%,SF-268,1.66%
same,GI%,SF-295,9.48%
same,GI%,SNB-19,4.96%
same,GI%,A498,6.80%
same,GI%,UACC-62,4.68%
same,Mean GI%,[1],2.16%
